Data set [1] concerns MCF-7 cells. Briefly: [14C]-6-deoxy-6-fluoro-D-fructose uptake in MCF-7 cells. The settings on record: for uptake time course: 90 minute incubation, MCF-7, corrected for non-mediated hexose uptake. The format is cell-based, human. Here is the method: (§1) Both MCF-7 and MDA-MB-231 cells (Gifts from Dr. David Murray, Cross Cancer Institute, Edmonton, Canada) were grown in a 37° C., 5% CO2 incubator, in Gibco® DMEM-F12 supplemented with 15 mM HEPES, L-glutamine, 10% fetal bovine serum and 1% penicillin/streptomycin with media renewal every 2 to 3 days. For cell flux studies, cells were grown to confluence in 12-well plates with media renewal every two days. Two hours before performing the flux experiment, the media was removed, and the cells washed twice with phosphate buffered saline solution (PBS). Glucose-free Krebs-Ringer solution was added to the wells (120 mM NaCl, 25 mM NaHCO3, 4 mM KCl, 1.2 mM KH2PO4, 2.5 mM MgSO4, 70 uM CaCl2, pH 7.4) to deprive the cells of nutrients and to set up a zero-trans experiment. After two hours, cells were removed from the incubator, and the respective experiments were performed. Radioactive “Hot” flux solutions were made up using the Krebs-Ringer solution previously mentioned and radiolabelled [^14C]-D-glucose (Amersham), [^14C]-D-fructose (Moravek Biochemicals), or [^14C]6FDF (proprietary) at a specific activity of approximately 1 μCi/ml. For determining background levels of radioactivity, a sodium reduced Krebs solution was made (70 mM NaCl, 25 mM NaHCO3, 4 mM KCl, 1.2 mM KH2PO4, 2.5 mM MgSO4, 70 μM CaCl2, pH 7.4) with the addition of either 100 mM D-glucose or 100 mM D-fructose to outcompete the binding sites of the specific GLUT transporters under examination. […] Three 150 μl samples from each well were placed into scintillation counter vials, and 4 ml of ScintiSafe™ liquid scintillation fluid (Fisher) was added. The vials were then placed in a Beckman™ LS 6500 multi-purpose liquid scintillation counter to be quantified. All counts were then normalized to standards and corrected for background accumulation of isotope.
(§2) All uptake values were corrected for their respective adhering extracellular substrate, and Ki values were determined using non-linear regression in GraphPad Prism™ 5 (GraphPad Software, Inc., La Jolla, Calif.). ANOVA analysis was also performed in GraphPad Prism™ 5.

Data set [2] deals with MDA-MB-231 cells. Briefly: [14C]-6-deoxy-6-fluoro-D-fructose uptake in MDA-MB-231 cells. Format: cell-based, human. The following applies: 90 minute incubation, MDA-MB-231, corrected for non-mediated hexose uptake. As for the experimental part:
Both MCF-7 and MDA-MB-231 cells (Gifts from Dr. David Murray, Cross Cancer Institute, Edmonton, Canada) were grown in a 37° C., 5% CO2 incubator, in Gibco® DMEM-F12 supplemented with 15 mM HEPES, L-glutamine, 10% fetal bovine serum and 1% penicillin/streptomycin with media renewal every 2 to 3 days. For cell flux studies, cells were grown to confluence in 12-well plates with media renewal every two days. Two hours before performing the flux experiment, the media was removed, and the cells washed twice with phosphate buffered saline solution (PBS). […] For determining background levels of radioactivity, a sodium reduced Krebs solution was made (70 mM NaCl, 25 mM NaHCO3, 4 mM KCl, 1.2 mM KH2PO4, 2.5 mM MgSO4, 70 μM CaCl2, pH 7.4) with the addition of either 100 mM D-glucose or 100 mM D-fructose to outcompete the binding sites of the specific GLUT transporters under examination. […] The vials were then placed in a Beckman™ LS 6500 multi-purpose liquid scintillation counter to be quantified. […]
(§3) All uptake values were corrected for their respective adhering extracellular substrate, and Ki values were determined using non-linear regression in GraphPad Prism™ 5 (GraphPad Software, Inc., La Jolla, Calif.). […]

Data set [3] deals with MCF-7 cells. The data set is described as follows: Inhibition of [14C]-D-fructose transport (hexose flux) in MCF-7 cells. The format is cell-based, human. Here is the method:
as §1, §2

Data set [4] deals with MDA-MB-231 cells. Briefly: Inhibition of [14C]-D-fructose transport (hexose flux) in MDA-MB-231 cells. Format: cell-based, human. Here is the method:
as §1, §2

Data set [5] has as its system MCF-7 cells. The data set is described as follows: Inhibition of [14C]-D-glucose transport (hexose flux) in MCF-7 cells. Format: cell-based, human. The settings on record: for Ki: [14C]-D-glucose. Here is the method: (§4) Both MCF-7 and MDA-MB-231 cells (Gifts from Dr. David Murray, Cross Cancer Institute, Edmonton, Canada) were grown in a 37° C., 5% CO2 incubator, in Gibco® DMEM-F12 supplemented with 15 mM HEPES, L-glutamine, 10% fetal bovine serum and 1% penicillin/streptomycin with media renewal every 2 to 3 days. For cell flux studies, cells were grown to confluence in 12-well plates with media renewal every two days. Two hours before performing the flux experiment, the media was removed, and the cells washed twice with phosphate buffered saline solution (PBS). Glucose-free Krebs-Ringer solution was added to the wells (120 mM NaCl, 25 mM NaHCO3, 4 mM KCl, 1.2 mM KH2PO4, 2.5 mM MgSO4, 70 uM CaCl2, pH 7.4) to deprive the cells of nutrients and to set up a zero-trans experiment. After two hours, cells were removed from the incubator, and the respective experiments were performed. Radioactive “Hot” flux solutions were made up using the Krebs-Ringer solution previously mentioned and radiolabelled [^14C]-D-glucose (Amersham), [^14C]-D-fructose (Moravek Biochemicals), or [^14C]6FDF (proprietary) at a specific activity of approximately 1 μCi/ml. For determining background levels of radioactivity, a sodium reduced Krebs solution was made (70 mM NaCl, 25 mM NaHCO3, 4 mM KCl, 1.2 mM KH2PO4, 2.5 mM MgSO4, 70 μM CaCl2, pH 7.4) with the addition of either 100 mM D-glucose or 100 mM D-fructose to outcompete the binding sites of the specific GLUT transporters under examination. After applying the test flux solution, incubations lasted for 25 minutes, where the cells were then rinsed twice with ice-cold Krebs-Ringer to stop the transport, and then lysed using 500 μl 5% trichloracetic acid and left to sit on a shaker bed overnight. […] The vials were then placed in a Beckman™ LS 6500 multi-purpose liquid scintillation counter to be quantified. […]
as §3

Data set [6] concerns MDA-MB-231 cells. The data set is described as follows: Inhibition of [14C]-D-glucose transport (hexose flux) in MDA-MB-231 cells. The following applies: for Ki: [14C]-D-glucose. Format: cell-based, human. As for the experimental part:
as §4, §3

Data set [7] can be described thus: Storage stability. Format: physicochemical. The following applies: prolonged storage.
The mark [8] stands for this setting: listed as [^14C]-labelled 6-deoxy-6-fluoro-D-fructose.
Where [9] appears, read: increasing concentrations, MCF-7.
Where [10] appears, read: increasing concentrations, MDA-MB-231.

A word on the Ki: it is a measure of affinity in units of concentration, obtained from inhibition or displacement. The low end stands for higher affinity, the high end for lower affinity.

Turning to `O=C(CO)[C@@H](O)[C@H](O)[C@H](O)CF` [[^14C]-6-deoxy-6-fluoro-D-fructose], the uptake time course result in data set [1] is listed as “Near linear uptake”; in data set [1] (setting [8]) it was “Near linear uptake over time”; in data set [2] it was “Near linear uptake”; in data set [2] (setting [8]), “Near linear uptake over time”. In data set [1] (MCF-7, one hour incubation, 2-way ANOVA p=0.0028), the “increase in uptake compared to [14C]-D-fructose” value is “almost two-fold increase”.

Regarding `C=C1[C@@H](C)[C@H]2[C@H](Cc3ccccc3)NC(=O)[C@]23OC(=O)/C=C/[C@H](O)CCC[C@@H](C)C/C=C/[C@H]3[C@@H]1O` [CB, cytochalasin B, reference compound], in data set [3] (100 μM CB, [14C]-D-fructose, 60 minutes, MCF-7), the “effect on fructose transport” value is “no significant transport difference”. Moreover, the “share of total fructose flux inhibited (GLUT2-mediated)” value was “about 12%” in data set [3] (100 μM CB, [14C]-D-fructose, 90 minute flux, MCF-7) and “approximately 30%” in data set [4] (100 μM CB, [14C]-D-fructose, 90 minute flux, MDA-MB-231). For the same compound, the “effect on 6-deoxy-6-fluoro-D-fructose transport” value in data set [1] (100 μM CB, [14C]-6-deoxy-6-fluoro-D-fructose, 60 minutes, MCF-7) is recorded as “no significant transport difference”.

For `OCC1(O)O[C@H](CF)[C@@H](O)[C@@H]1O` (stereo partly drawn) [6-deoxy-6-fluoro-D-fructose], the Ki in data set [5] (25 minute incubation, MCF-7, n=3) is about 916 µM; in data set [5] (MCF-7 (FIG. 7A)) it was about 916 µM; in data set [6] (25 minute incubation, MDA-MB-231, n=3), 6210 ± 2860 µM; in data set [6] (MDA-MB-231 (FIG. 7B)), 6210 ± 2860 µM; in data set [3] ([14C]-D-fructose, 25 minute incubation, MCF-7, n=3), 154 ± 54 µM; in data set [4] ([14C]-D-fructose, 25 minute incubation, MDA-MB-231, n=3), 330 ± 153 µM. The “inhibition of [14C]-D-glucose transport, in words” value in data set [5] (setting [9]) and in data set [6] (setting [10]) was “dose dependent inhibition” in each case. Besides, the “inhibition of [14C]-D-fructose transport, in words” value in data set [3] (setting [9]) and in data set [4] (setting [10]) was “dose dependent inhibition” throughout. Besides, the stability during storage entry in data set [7] is listed as “not stable during prolonged storage”.

For the origin of these results see patent US8293208B2, “Fluorinated fructose derivatives for PET imaging” (The Governors of the University of Alberta, priority 2009, dated 2012).
